What was measured:
Assay type in all cases: functional
[1] = Growth inhibition of human SK/LapR1.0 cells at 5 uM incubated for 72 hrs by ATP detection based luminescent assay; settings: read-out: GI
[2] = Growth inhibition of human BT/LapR1.0 cells at 5 uM incubated for 72 hrs by ATP detection based luminescent assay; settings: read-out: GI
[3] = Growth inhibition of human BT474 cells at 5 uM incubated for 72 hrs by ATP detection based luminescent assay; settings: BT-474, 72 h, read-out: GI
MDA-MB-453 = assay: Growth inhibition of human MDA-MB-453 cells at 5 uM incubated for 72 hrs by ATP detection based luminescent assay; settings: MDA-MB-453, 72 h, read-out: GI
[4] = Growth inhibition of human SKBR3 cells at 5 uM incubated for 72 hrs by ATP detection based luminescent assay; settings: SK-BR-3, 72 h, read-out: GI
MDA-MB-361 = assay: Growth inhibition of human MDA-MB-361 cells at 5 uM incubated for 72 hrs by ATP detection based luminescent assay; settings: MDA-MB-361, 72 h, read-out: GI

| SMILES | inhibition of growth at 5 µM [1] | inhibition of growth at 5 µM [2] | inhibition of growth at 5 µM [3] | inhibition of growth at 5 µM (MDA-MB-453) | inhibition of growth at 5 µM [4] | inhibition of growth at 5 µM (MDA-MB-361) |
| --- | --- | --- | --- | --- | --- | --- |
| Cc1ccc(CN(C)C2CCN(Cc3cnc(Cl)s3)CC2)cc1 | 8.4% | 16% | – | – | – | – |
| Cc1ccccc1CN(C)C1CCN(Cc2cnc(Cl)s2)CC1 | 5.1% | 4% | 1.5% | 3.5% | 9.7% | 4.4% |
| COc1nccc(N2CCC(N(C)Cc3ccccc3C#N)CC2)n1 | 74.3% | 72.7% | 71.6% | 79.5% | 86.5% | 53.3% |
| CCOc1ncc(CN2CCC(N(C)Cc3ccc(F)cc3)CC2)s1 | – | – | – | – | 26% | – |
| CCOc1ncc(CN2CCC(N(C)Cc3cccc(Cl)c3)CC2)s1 | 5.2% | – | – | – | – | – |
| CSc1ncc(CN2CCC(N(C)Cc3cccc(F)c3)CC2)s1 | 2.1% | – | – | – | – | – |
| CCOc1ncc(CN2CCC(N(C)Cc3ccccc3Cl)CC2)s1 | 0.6% | – | – | – | – | – |
| Clc1ncc(CN2CCC(NCc3ccc(Cl)c(Cl)c3)CC2)s1 | – | – | 11% | – | – | – |
| CN(Cc1c(Cl)cccc1Cl)C1CCN(Cc2cnc(Cl)s2)CC1 | 4.5% | 66.3% | 70% | 72.4% | 37.8% | 36.3% |
| COc1nccc(N2CCC(N(C)Cc3cccc(F)c3)CC2)n1 | 3.9% | – | 9.9% | – | 9.2% | 8.5% |
| CSc1ncc(CN2CCC(N(C)Cc3ccccc3C)CC2)s1 | 6.9% | 1.4% | – | – | – | – |
| COc1cc(N2CCC(N(C)Cc3ccc(Cl)c(Cl)c3)CC2)ncn1 | 28% | 9.2% | 9.8% | – | – | 6.5% |
| CSc1nccc(N2CCC(N(C)Cc3ccc(Cl)c(Cl)c3)CC2)n1 | – | – | – | 60% | – | – |
| CN(Cc1ccc(F)cc1)C1CCN(Cc2cnc(Cl)s2)CC1 | -0.1% | 9% | 7.1% | 11% | – | -1.3% |
| COc1cc(N2CCC(N(C)Cc3ccc(C)cc3)CC2)ncn1 | 22% | 8% | 5% | – | – | – |
| CN(Cc1cccc(Cl)c1)C1CCN(Cc2cnc(Cl)s2)CC1 | 8.5% | 8.4% | 7.1% | – | – | 9.7% |
| CN(Cc1ccc(Cl)c(Cl)c1)C1CCN(Cc2cnc(Cl)s2)CC1 | 5.3% | – | – | – | – | – |
| CN(Cc1c(F)cccc1Cl)C1CCN(Cc2cnc(Cl)s2)CC1 | 1.5% | 3.2% | – | – | 9.8% | – |
| CCOc1ncc(CN2CCC(N(C)Cc3ccccc3C#N)CC2)s1 | 7.2% | – | – | – | – | – |
| CCOc1ncc(CN2CCC(N(C)Cc3cc(Cl)ccc3Cl)CC2)s1 | 5.2% | 9.6% | 5.6% | – | 9.4% | – |
| COc1cc(N2CCC(N(C)Cc3ccccc3Cl)CC2)ncn1 | 29% | – | – | – | – | – |
| COc1cc(N2CCC(N(C)Cc3cccc(Cl)c3)CC2)ncn1 | – | 9.4% | – | – | – | – |
| CS(=O)(=O)CCNCc1ccc(-c2ccc3ncnc(Nc4ccc(OCc5cccc(F)c5)c(Cl)c4)c3c2)o1 [LAPATINIB] | – | 18% | – | – | 79% | – |
| Clc1cccc(CNC2CCN(Cc3cnc(Cl)s3)CC2)c1 | 4.1% | 7.2% | 3.8% | 2.4% | – | 3.2% |
| COc1cc(N2CCC(N(C)Cc3ccc(C#N)cc3)CC2)ncn1 | 8.8% | – | – | – | – | – |
| CCOc1ncc(CN2CCC(N(C)Cc3c(Cl)cccc3Cl)CC2)s1 | 5.1% | – | – | – | – | – |

— ChEMBL document CHEMBL3414474, “Design and synthesis of piperidine derivatives as novel human heat shock protein 70 inhibitors for the treatment of drug-resistant tumors” (Eur J Med Chem, 2015)
